In PubChem BioAssay AID2060886 (Molecular Pharmacology Branch, DTP, NCI, 2025):

Test system: 653999-131-R-J2-PDC complex spheroids, growth inhibition
Assay: Anticancer human tumor 653999-131-R-J2-PDC patient-derived lung adenocarcinoma cell line growth inhibition [RAS]
Conditions: for IC50: curve of first compound; for viability, T/C: stronger effect = lower value
Outline: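 Agents were tested in combination matrices in half-log decrements from a top concentration at or near clinical Cmax (10 microM if undetermined). Targets were multi-cell spheroids of tumour lines plus HUVEC and MSC stromal cells.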
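Also: spheroids exposed to the agents for seven days before the readout.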

## CC1(C)CCC(Nc2ncc(C(F)(F)F)c(-c3c[nH]c4c(P(C)(C)=O)c(C#N)ccc34)n2)CN1 (centres undefined) + CCn1c(-c2cc(N3CCN(C)CC3)cnc2C(C)OC)c2c3cc(ccc31)-c1csc(n1)CC(NC(=O)C1CC1C)C(=O)N1CCCC(N1)C(=O)OCC(C)(C)C2
Second compound 0.000949 µM
  IC50: > 300 nM
Second compound 0.003 µM
  IC50: < 0.949 nM
Second compound 0.00949 µM
  IC50: < 0.949 nM
Second compound 0.03 µM
  IC50: < 0.949 nM
Second compound 0.0949 µM
  IC50: < 0.949 nM
Second compound 0.3 µM
  IC50: < 0.949 nM
Second compound 0.000949 µM, first compound 0.000949 µM
  viability, T/C: 60.9%
Second compound 0.000949 µM, first compound 0.003 µM
  viability, T/C: 58.4%
Second compound 0.000949 µM, first compound 0.00949 µM
  viability, T/C: 56.4%
Second compound 0.000949 µM, first compound 0.03 µM
  viability, T/C: 45.1%
Second compound 0.000949 µM, first compound 0.0949 µM
  viability, T/C: 56.4%
Second compound 0.000949 µM, first compound 0.3 µM
  viability, T/C: 61.2%
Second compound 0.003 µM, first compound 0.000949 µM
  viability, T/C: 51%
Second compound 0.003 µM, first compound 0.003 µM
  viability, T/C: 41.6%
Second compound 0.003 µM, first compound 0.00949 µM
  viability, T/C: 40.8%
Second compound 0.003 µM, first compound 0.03 µM
  viability, T/C: 44.7%
Second compound 0.003 µM, first compound 0.0949 µM
  viability, T/C: 41.1%
Second compound 0.003 µM, first compound 0.3 µM
  viability, T/C: 38.2%
Second compound 0.00949 µM, first compound 0.000949 µM
  viability, T/C: 35.9%
Second compound 0.00949 µM, first compound 0.003 µM
  viability, T/C: 24.3%
Second compound 0.00949 µM, first compound 0.00949 µM
  viability, T/C: 21.4%
Second compound 0.00949 µM, first compound 0.03 µM
  viability, T/C: 21.6%
Second compound 0.00949 µM, first compound 0.0949 µM
  viability, T/C: 27.6%
Second compound 0.00949 µM, first compound 0.3 µM
  viability, T/C: 22.3%
Second compound 0.03 µM, first compound 0.000949 µM
  viability, T/C: 17.8%
Second compound 0.03 µM, first compound 0.003 µM
  viability, T/C: 18.3%
Second compound 0.03 µM, first compound 0.00949 µM
  viability, T/C: 17.4%
Second compound 0.03 µM, first compound 0.03 µM
  viability, T/C: 13.4%
Second compound 0.03 µM, first compound 0.0949 µM
  viability, T/C: 15.9%
Second compound 0.03 µM, first compound 0.3 µM
  viability, T/C: 16.5%
Second compound 0.0949 µM, first compound 0.000949 µM
  viability, T/C: 16.4%
Second compound 0.0949 µM, first compound 0.003 µM
  viability, T/C: 17.8%
Second compound 0.0949 µM, first compound 0.00949 µM
  viability, T/C: 14.5%
Second compound 0.0949 µM, first compound 0.03 µM
  viability, T/C: 14.4%
Second compound 0.0949 µM, first compound 0.0949 µM
  viability, T/C: 14.1%
Second compound 0.0949 µM, first compound 0.3 µM
  viability, T/C: 16.3%
Second compound 0.3 µM, first compound 0.000949 µM
  viability, T/C: 14.5%
Second compound 0.3 µM, first compound 0.003 µM
  viability, T/C: 15.2%
Second compound 0.3 µM, first compound 0.00949 µM
  viability, T/C: 14.7%
Second compound 0.3 µM, first compound 0.03 µM
  viability, T/C: 14.8%
Second compound 0.3 µM, first compound 0.0949 µM
  viability, T/C: 13.7%
Second compound 0.3 µM, first compound 0.3 µM
  viability, T/C: 15.7%

## O=C(c1ccc(F)c(F)c1Nc1ccc(I)cc1F)N1CC(O)([C@@H]2CCCCN2)C1 + C#Cc1c(F)ccc2cc(O)cc(-c3ncc4c(N5CC6CCC(C5)N6)nc(OCC56CCCN5CC(F)C6)nc4c3F)c12
Second compound 0.0316 µM
  IC50: 92.7 nM
Second compound 0.1 µM
  IC50: 54.7 nM
Second compound 0.316 µM
  IC50: 106 nM
Second compound 1 µM
  IC50: < 3.16 nM
Second compound 3.16 µM
  IC50: < 3.16 nM
Second compound 10 µM
  IC50: < 3.16 nM
Second compound 0.0316 µM, first compound 0.00316 µM
  viability, T/C: 88.1%
Second compound 0.0316 µM, first compound 0.01 µM
  viability, T/C: 90.7%
Second compound 0.0316 µM, first compound 0.0316 µM
  viability, T/C: 60.7%
Second compound 0.0316 µM, first compound 0.1 µM
  viability, T/C: 52.7%
Second compound 0.0316 µM, first compound 0.316 µM
  viability, T/C: 25.6%
Second compound 0.0316 µM, first compound 1 µM
  viability, T/C: 7.56%
Second compound 0.1 µM, first compound 0.00316 µM
  viability, T/C: 70.9%
Second compound 0.1 µM, first compound 0.01 µM
  viability, T/C: 70.6%
Second compound 0.1 µM, first compound 0.0316 µM
  viability, T/C: 63%
Second compound 0.1 µM, first compound 0.1 µM
  viability, T/C: 34.6%
Second compound 0.1 µM, first compound 0.316 µM
  viability, T/C: 24%
Second compound 0.1 µM, first compound 1 µM
  viability, T/C: 8.72%
Second compound 0.316 µM, first compound 0.00316 µM
  viability, T/C: 62.3%
Second compound 0.316 µM, first compound 0.01 µM
  viability, T/C: 60.1%
Second compound 0.316 µM, first compound 0.0316 µM
  viability, T/C: 66.6%
Second compound 0.316 µM, first compound 0.1 µM
  viability, T/C: 49.9%
Second compound 0.316 µM, first compound 0.316 µM
  viability, T/C: 23.8%
Second compound 0.316 µM, first compound 1 µM
  viability, T/C: 8.41%
Second compound 1 µM, first compound 0.00316 µM
  viability, T/C: 50.1%
Second compound 1 µM, first compound 0.01 µM
  viability, T/C: 39.8%
Second compound 1 µM, first compound 0.0316 µM
  viability, T/C: 51.2%
Second compound 1 µM, first compound 0.1 µM
  viability, T/C: 43.4%
Second compound 1 µM, first compound 0.316 µM
  viability, T/C: 19.1%
Second compound 1 µM, first compound 1 µM
  viability, T/C: 6.71%
Second compound 3.16 µM, first compound 0.00316 µM
  viability, T/C: 34.5%
Second compound 3.16 µM, first compound 0.01 µM
  viability, T/C: 31.5%
Second compound 3.16 µM, first compound 0.0316 µM
  viability, T/C: 31.6%
Second compound 3.16 µM, first compound 0.1 µM
  viability, T/C: 21.4%
Second compound 3.16 µM, first compound 0.316 µM
  viability, T/C: 12.8%
Second compound 3.16 µM, first compound 1 µM
  viability, T/C: 5.39%
Second compound 10 µM, first compound 0.00316 µM
  viability, T/C: 26%
Second compound 10 µM, first compound 0.01 µM
  viability, T/C: 22.1%
Second compound 10 µM, first compound 0.0316 µM
  viability, T/C: 11.9%
Second compound 10 µM, first compound 0.1 µM
  viability, T/C: 11.9%
Second compound 10 µM, first compound 0.316 µM
  viability, T/C: 8.98%
Second compound 10 µM, first compound 1 µM
  viability, T/C: 2.85%
